The values that follow come from ChEMBL document CHEMBL2412981, “Syntheses of procyanidin B2 and B3 gallate derivatives using equimolar condensation mediated by Yb(OTf)3 and their antitumor activities” (Bioorg Med Chem Lett, 2013).

Activity calls are given as the source filed them. The calls are words filed in the database; no cut-off is given here.

The test system of the assay is PC-3. Put plainly: Antiproliferative activity against human PC3 cells at 10 to 100 uM after 48 hrs by hemocytometric cell counting method. The format is functional, cell-based.
As to `O=C(O[C@@H]1[C@@H](c2c(O)cc(O)c3c2O[C@H](c2ccc(O)c(O)c2)[C@H](O)C3)c2c(O)cc(O)cc2O[C@@H]1c1ccc(O)c(O)c1)c1cc(O)c(O)c(O)c1`, the inhibition result is “Active”.
With `O=C(O[C@@H]1Cc2c(O)cc(O)cc2O[C@@H]1c1cc(O)c(O)c(O)c1)c1cc(O)c(O)c(O)c1`, the inhibition entry is “Active”.
To `O=C(O[C@@H]1Cc2c(O)cc(O)c([C@H]3c4c(O)cc(O)cc4O[C@H](c4ccc(O)c(O)c4)[C@@H]3O)c2O[C@@H]1c1ccc(O)c(O)c1)c1cc(O)c(O)c(O)c1` belongs “Active”.
Regarding `Oc1cc(O)c2c(c1)O[C@H](c1cc(O)c(O)c(O)c1)[C@@H](O)[C@@H]2c1c(O)cc(O)c2c1O[C@H](c1cc(O)c(O)c(O)c1)[C@@H](O)C2`, the inhibition entry was “Active”.
As to `O=C(O[C@H]1[C@H](c2c(O)cc(O)c3c2O[C@H](c2ccc(O)c(O)c2)[C@@H](OC(=O)c2cc(O)c(O)c(O)c2)C3)c2c(O)cc(O)cc2O[C@@H]1c1ccc(O)c(O)c1)c1cc(O)c(O)c(O)c1`, the inhibition entry was “Active”.
`O=C(O[C@@H]1[C@@H](c2c(O)cc(O)c3c2O[C@H](c2ccc(O)c(O)c2)[C@H](OC(=O)c2cc(O)c(O)c(O)c2)C3)c2c(O)cc(O)cc2O[C@@H]1c1ccc(O)c(O)c1)c1cc(O)c(O)c(O)c1`: the inhibition result is “Active”.
As for `O=C(O[C@H]1Cc2c(O)cc(O)c([C@@H]3c4c(O)cc(O)cc4O[C@H](c4ccc(O)c(O)c4)[C@H]3O)c2O[C@@H]1c1ccc(O)c(O)c1)c1cc(O)c(O)c(O)c1`, the inhibition result is “Active”.
Regarding `O=C(O[C@H]1[C@H](c2c(O)cc(O)c3c2O[C@H](c2ccc(O)c(O)c2)[C@@H](O)C3)c2c(O)cc(O)cc2O[C@@H]1c1ccc(O)c(O)c1)c1cc(O)c(O)c(O)c1`, the inhibition result is “Active”.
